Results as given in the supplement of paper PMC10307832.

Legend:
Assay in all cases: relative viability (nuclei count vs DMSO), 5 days (fraction); higher = more cells survive
[1] = compound: COc1cc2c(Oc3ccc4[nH]c(C)cc4c3F)ncnc2cc1OCCCN1CCCC1 [Cediranib] + Cc1nc(NC(=O)N2CCC[C@H]2C(N)=O)sc1-c1ccnc(C(C)(C)C(F)(F)F)c1 [Alpelisib] (partner 2 µM)
Outline: (§1)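 Five library-drug doses in √10 steps were combined with a fixed anchor-drug dose, or a single drug was given alone, by pin tool to lung cancer cell lines in 1536-well plates the day after seeding. Nuclei were stained and counted after 5 days. Relative viability is the nuclei count in treated wells over that in vehicle wells, taken as the median of duplicate plates.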

[2] = compound: Nc1ncn([C@H]2C[C@H](O)[C@@H](CO)O2)c(=O)n1 [Decitabine] + CS(=O)(=O)CCNCc1ccc(-c2ccc3ncnc(Nc4ccc(OCc5cccc(F)c5)c(Cl)c4)c3c2)o1 [Lapatinib] (partner 2 µM)
Outline: as §1

[3] = compound: Nc1ncn([C@H]2C[C@H](O)[C@@H](CO)O2)c(=O)n1 [Decitabine] + Nc1nc2[nH]cc(CCc3ccc(C(=O)N[C@@H](CCC(=O)O)C(=O)O)cc3)c2c(=O)[nH]1 [Pemetrexed] (partner 0.2 µM)
Outline: as §1

[4] = compound: O=C(C[C@H]1NCCC[C@@H]1O)Cn1cnc2cc(Br)c(Cl)cc2c1=O (racemic) [Halofuginone] + O=C(c1cc(Cc2n[nH]c(=O)c3ccccc23)ccc1F)N1CCN(C(=O)C2CC2)CC1 [Olaparib] (partner 8 µM)
Outline: as §1

Cell Line | relative viability ([1]; first compound 0.04 µM) | relative viability ([1]; first compound 0.1265 µM) | relative viability ([1]; first compound 0.4 µM) | relative viability ([1]; first compound 1.265 µM) | relative viability ([1]; first compound 4 µM) | relative viability ([2]; first compound 0.04 µM) | relative viability ([2]; first compound 0.1265 µM) | relative viability ([2]; first compound 0.4 µM) | relative viability ([2]; first compound 1.265 µM) | relative viability ([2]; first compound 4 µM) | relative viability ([3]; first compound 0.04 µM) | relative viability ([3]; first compound 0.1265 µM) | relative viability ([3]; first compound 0.4 µM) | relative viability ([3]; first compound 1.265 µM) | relative viability ([3]; first compound 4 µM) | relative viability ([4]; first compound 0.001 µM) | relative viability ([4]; first compound 0.003162 µM) | relative viability ([4]; first compound 0.01 µM) | relative viability ([4]; first compound 0.03162 µM) | relative viability ([4]; first compound 0.1 µM)
NCI-H647 | 1.35 | 1.3 | 1.02 | 0.876 | 1.21 | 0.756 | 0.77 | 0.537 | 0.271 | 0.194 | 0.168 | 0.149 | 0.12 | 0.13 | 0.112 | 0.637 | 0.746 | 0.517 | 0.442 | 0.11
NCI-H650 | 1.06 | 1.02 | 1.05 | 1.12 | 1.21 | 0.786 | 0.532 | 0.339 | 0.356 | 0.292 | 0.686 | 0.588 | 0.382 | 0.273 | 0.266 | 0.395 | 0.389 | 0.408 | 0.36 | 0.286
NCI-H661 | 0.633 | 1.03 | 0.631 | 0.522 | 0.588 | 0.465 | 0.455 | 0.382 | 0.297 | 0.269 | 0.779 | 0.657 | 0.572 | 0.481 | 0.404 | 0.797 | 0.74 | 0.671 | 0.666 | 0.566
NCI-H838 | 1.06 | 0.997 | 0.97 | 0.962 | 1.13 | 0.566 | 0.549 | 0.226 | 0.307 | 0.205 | 0.225 | 0.236 | 0.2 | 0.19 | 0.198 | 0.817 | 0.784 | 0.734 | 0.527 | 0.107
NCI-H1355 | 0.993 | 0.879 | 0.704 | 0.838 | 0.956 | 0.884 | 0.592 | 0.444 | 0.286 | 0.279 | 0.701 | 0.513 | 0.38 | 0.323 | 0.314 | 0.785 | 0.805 | 0.611 | 0.754 | 0.7
NCI-H1395 | 0.947 | – | 1.01 | 1.04 | 1.04 | 0.819 | 0.675 | 0.571 | 0.528 | 0.821 | 0.64 | 0.685 | 0.744 | 0.474 | 0.484 | 0.462 | 0.469 | 0.471 | 0.433 | 0.388
NCI-H1437 | 1.02 | 1.03 | 0.971 | 0.954 | 1.12 | 0.505 | 0.582 | 0.274 | 0.235 | 0.221 | 0.318 | 0.276 | 0.295 | 0.235 | 0.214 | 0.649 | 0.653 | 0.619 | 0.616 | 0.456
